How the values were obtained:
[1] = molecular target: T1, glucosylceramide synthase (GCS) (Homo sapiens, UniProt Q16739); experiment: GCS enzyme inhibition assay (A549 cell lysate, NBD C6-ceramide, HPLC fluorescence); format: biochemical; conditions: inhibitory activity against GCS, 37° C., 90 minutes
T1 construct: The obtained supernatant was used; host or cells: A549 cells (lysate supernatant after sonication)
T1 sequence (Q16739 1-394): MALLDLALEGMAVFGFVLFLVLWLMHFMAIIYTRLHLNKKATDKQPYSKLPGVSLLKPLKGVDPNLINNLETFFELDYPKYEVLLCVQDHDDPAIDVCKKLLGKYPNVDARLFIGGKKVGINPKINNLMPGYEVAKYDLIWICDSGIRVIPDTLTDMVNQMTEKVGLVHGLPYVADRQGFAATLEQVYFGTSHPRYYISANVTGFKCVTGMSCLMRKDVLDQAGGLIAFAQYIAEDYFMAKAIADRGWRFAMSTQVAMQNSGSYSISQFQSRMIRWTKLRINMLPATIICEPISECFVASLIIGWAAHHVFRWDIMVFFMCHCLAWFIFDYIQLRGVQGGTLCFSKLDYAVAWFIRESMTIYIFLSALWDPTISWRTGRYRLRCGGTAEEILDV
Description: Ibiglustat, known as a GCS inhibitor, was used as a control.
After the cells attached to the culture dish were washed with phosphate buffered saline (PBS), the cells were scraped off with a cell scraper and then centrifuged (4000 rpm, 3 min, 4° C.) to collect the cells in a 50 ml tube. The cell pellets were suspended in a lysis buffer (50 mM HEPES, pH 7.3, containing 1× the protease/phosphatase inhibitor cocktail), lysed by sonication, and then the lysate was centrifuged (13000 rpm, 10 min, 4° C.). The obtained supernatant was used for the quantitative analysis of proteins. The amount of proteins was measured using the BCA protein assay kit, using bovine serum albumin as a standard.
Enzymatic reactions were initiated by sequentially adding the following reaction materials to a 96 deep-well plate. Thereafter, the enzymatic reactions were performed at 37° C. for 90 minutes.
The enzymatic reactions were stopped by adding 100 μl of chloroform/methanol (2:1, v/v). After vortexing for 15 seconds, each mixture was centrifuged (4000 rpm, 10 min, 18° C.). The lower layer (50 μl) was transferred to a new 96 deep-well plate and dried with a reduced concentrator.
Data analysis was performed by the following equations. % Area(Sample)=Area(GlcCer)/[Area(Cer)+Area(GlcCer)]×100 % GCS activity=[Area(Sample)−Area(ibiglustat)]/[Area(DMSO)−Area(ibiglustat)]×100

[2] = tested on: GM1 production in Jurkat cells; experiment: cells; format: cell-based; conditions: Homo sapiens, Jurkat, 72 h

Row | SMILES | IC50 [1] | IC50 [2]
1 | CC1(C)COc2cc(-c3coc4ccccc34)ccc2C1NC(=O)O[C@@H]1CN2CCC1CC2 (stereo partly drawn) [Example 147, (S)-quinuclidin-3-yl (7-(benzofuran-3-yl)-3,3-dimethylchroman-4-yl)carbamate] | 0.4 nM | 1 nM
2 | COc1cncc(-c2ccc3c(c2)OCCC3NC(=O)O[C@@H]2CN3CCC2CC3)c1 (stereo partly drawn) [Example 79, (S)-quinuclidin-3-yl (7-(5-methoxypyridin-3-yl)chroman-4-yl)carbamate] | 2.57 nM | 33.4 nM
3 | O=C(NC1CCOc2cc(-c3cccc4cccnc34)ccc21)O[C@@H]1CN2CCC1CC2 (stereo partly drawn) [Example 56, (S)-quinuclidin-3-yl (7-(quinolin-8-yl)chroman-4-yl)carbamate] | 1.38 nM | 6.03 nM
4 | CCOc1ccc(-c2ccc3c(c2)OCC(C)(C)C3NC(=O)O[C@@H]2CN3CCC2CC3)cc1F (stereo partly drawn) [Example 124, (S)-quinuclidin-3-yl (7-(4-ethoxy-3-fluorophenyl)-3,3-dimethylchroman-4-yl)carbamate] | 0.75 nM | 4.47 nM
5 | O=C(NC1CCOc2cc(-c3ccc4c(c3)CCCO4)ccc21)O[C@@H]1CN2CCC1CC2 (stereo partly drawn) [Example 70, (S)-quinuclidin-3-yl [6,7′-bichroman]-4′-ylcarbamate] | 0.59 nM | 5.78 nM
6 | CC(C)c1ccc(-c2ccc3c(c2)OCC(C)(C)C3NC(=O)O[C@@H]2CN3CCC2CC3)cc1 (stereo partly drawn) [Example 174, (S)-quinuclidin-3-yl (7-(4-isopropylphenyl)-3,3-dimethylchroman-4-yl)carbamate] | 0.35 nM | 1.37 nM
7 | CC1(C)COc2cc(-c3cccc(F)c3Cl)ccc2C1NC(=O)O[C@@H]1CN2CCC1CC2 (stereo partly drawn) [Example 237, (S)-quinuclidin-3-yl (7-(2-chloro-3-fluorophenyl)-3,3-dimethylchroman-4-yl)carbamate] | 0.63 nM | 5.1 nM
8 | CC1(C)COc2cc(-c3ccsc3)c(F)cc2C1NC(=O)O[C@@H]1CN2CCC1CC2 (stereo partly drawn) [Example 338, (S)-quinuclidin-3-yl (6-fluoro-3,3-dimethyl-7-(thiophen-3-yl)chroman-4-yl)carbamate] | 0.19 nM | 3.3 nM
9 | O=C(NC1CCOc2cc(-c3cc4ccccc4s3)ccc21)O[C@@H]1CN2CCC1CC2 (stereo partly drawn) [Example 42, (S)-quinuclidin-3-yl (7-(benzo[b]thiophen-2-yl)chroman-4-yl)carbamate] | 14 nM | 34.1 nM
10 | CCOc1ccc2cc(-c3ccc4c(c3)OCC(C)(C)C4NC(=O)O[C@@H]3CN4CCC3CC4)ccc2c1 (stereo partly drawn) [Example 288, (S)-quinuclidin-3-yl (7-(6-ethoxynaphthalen-2-yl)-3,3-dimethylchroman-4-yl)carbamate] | 1.11 nM | 0.7 nM
11 | CN1C(=O)COc2ccc(-c3ccc4c(c3)OCC(C)(C)C4NC(=O)O[C@@H]3CN4CCC3CC4)cc21 (stereo partly drawn) [Example 216, (S)-quinuclidin-3-yl (3,3-dimethyl-7-(4-methyl-3-oxo-3,4-dihydro-2H-benzo[b][1,4]oxazin-6-yl)chroman-4-yl)carbamate] | 1.51 nM | 8.58 nM
12 | CC1(C)COc2cc(-c3ccc(C(F)(F)F)cc3)ccc2C1NC(=O)O[C@@H]1CN2CCC1CC2 (stereo partly drawn) [Example 211, (S)-quinuclidin-3-yl (3,3-dimethyl-7-(4-(trifluoromethyl)phenyl)chroman-4-yl)carbamate] | 0.71 nM | 1.41 nM
13 | COCOc1ccc(-c2ccc3c(c2)OCC(C)(C)C3NC(=O)O[C@@H]2CN3CCC2CC3)cc1 (stereo partly drawn) [Example 108, (S)-quinuclidin-3-yl (7-(4-(methoxymethoxy)phenyl)-3,3-dimethylchroman-4-yl)carbamate] | 0.69 nM | 0.46 nM
14 | O=C(NC1CCSc2cc(-c3cccc(Cl)c3)ccc21)O[C@@H]1CN2CCC1CC2 (stereo partly drawn) [Example 318, (S)-quinuclidin-3-yl (7-(3-chlorophenyl)thiochroman-4-yl)carbamate] | 1.29 nM | 27.2 nM
15 | O=C(NC1CCOc2cc(-c3cccc4cn[nH]c34)ccc21)O[C@@H]1CN2CCC1CC2 (stereo partly drawn) [Example 49, (S)-quinuclidin-3-yl (7-(1H-indazol-7-yl)chroman-4-yl)carbamate] | 3.8 nM | 12.3 nM
16 | CC1(C)COc2cc(-c3ccsc3)ccc2C1NC(=O)O[C@@H]1CN2CCC1CC2 (stereo partly drawn) [Example 187, (S)-quinuclidin-3-yl (3,3-dimethyl-7-(thiophen-3-yl)chroman-4-yl)carbamate] | 0.32 nM | 2.06 nM

Row | SMILES | IC50 [1] | IC50 [2]
17 | O=C(NC1CCOc2cc(-c3ccccc3F)ccc21)O[C@@H]1CN2CCC1CC2 (stereo partly drawn) [Example 9, (S)-quinuclidin-3-yl (7-(2-fluorophenyl)chroman-4-yl)carbamate] | 1.81 nM | 2.83 nM
18 | COCCOc1ccc(-c2ccc3c(c2)OCC(C)(C)C3NC(=O)O[C@@H]2CN3CCC2CC3)cc1 (stereo partly drawn) [Example 111, (S)-quinuclidin-3-yl (7-(4-(2-methoxyethoxy)phenyl)-3,3-dimethylchroman-4-yl)carbamate] | 1.93 nM | 1.27 nM
19 | CCOc1ccc(-c2ccc3c(c2)OCC(C)(C)C3NC(=O)O[C@@H]2CN3CCC2CC3)c(C)c1 (stereo partly drawn) [Example 275, (S)-quinuclidin-3-yl (7-(4-ethoxy-2-methylphenyl)-3,3-dimethylchroman-4-yl)carbamate] | 0.84 nM | 2.6 nM
20 | C=CCc1ccccc1-c1ccc2c(c1)OCC(C)(C)C2NC(=O)O[C@@H]1CN2CCC1CC2 (stereo partly drawn) [Example 279, (S)-quinuclidin-3-yl (7-(2-allylphenyl)-3,3-dimethylchroman-4-yl)carbamate] | 0.73 nM | 6.2 nM
21 | CC(C)Oc1ccc(-c2ccc3c(c2)OCCC3NC(=O)O[C@@H]2CN3CCC2CC3)cc1Cl (stereo partly drawn) [Example 82, (S)-quinuclidin-3-yl (7-(3-chloro-4-isopropoxyphenyl)chroman-4-yl)carbamate] | 2.86 nM | 7 nM
22 | CC1(C)COc2cc(-c3ccc4c(c3)CCO4)ccc2C1NC(=O)O[C@@H]1CN2CCC1CC2 (stereo partly drawn) [Example 181, (S)-quinuclidin-3-yl (7-(2,3-dihydrobenzofuran-5-yl)-3,3-dimethylchroman-4-yl)carbamate] | 0.5 nM | 5.55 nM
23 | COc1cccc(OC)c1-c1ccc2c(c1)OCC(C)(C)C2NC(=O)O[C@@H]1CN2CCC1CC2 (stereo partly drawn) [Example 168, (S)-quinuclidin-3-yl (7-(2,6-dimethoxyphenyl)-3,3-dimethylchroman-4-yl)carbamate] | 1.4 nM | 2.05 nM
24 | CC(C)c1cccc(-c2ccc3c(c2)OCCC3(C)NC(=O)O[C@@H]2CN3CCC2CC3)c1 (stereo partly drawn) [Example 300, (S)-quinuclidin-3-yl (7-(3-isopropylphenyl)-4-methylchroman-4-yl)carbamate] | 0.23 nM | 0.9 nM
25 | CC1(C)CC(NC(=O)O[C@@H]2CN3CCC2CC3)c2ccc(-c3cccc(OC(F)(F)F)c3)cc2O1 (stereo partly drawn) [Example 296, (S)-quinuclidin-3-yl (2,2-dimethyl-7-(3-(trifluoromethoxy)phenyl)chroman-4-yl)carbamate] | 11.4 nM | 1.26 nM
26 | CC(C)Oc1ccc(-c2ccc3c(c2)OCC(C)(C)C3NC(=O)O[C@@H]2CN3CCC2CC3)cc1Cl (stereo partly drawn) [Example 167, (S)-quinuclidin-3-yl (7-(3-chloro-4-isopropoxyphenyl)-3,3-dimethylchroman-4-yl)carbamate] | 0.71 nM | 3.28 nM
27 | CC1(C)COc2cc(-c3ccc(Cl)cc3)ccc2C1NC(=O)O[C@@H]1CN2CCC1CC2 (stereo partly drawn) [Example 213, (S)-quinuclidin-3-yl (7-(4-chlorophenyl)-3,3-dimethylchroman-4-yl)carbamate] | 0.78 nM | 0.03 nM
28 | COc1ccc(Cl)c(-c2ccc3c(c2)OCC(C)(C)C3NC(=O)O[C@@H]2CN3CCC2CC3)c1 (stereo partly drawn) [Example 153, (S)-quinuclidin-3-yl (7-(2-chloro-5-methoxyphenyl)-3,3-dimethylchroman-4-yl)carbamate] | 0.48 nM | 0.06 nM
29 | O=C(NC1CCOc2cc(-c3coc4ccccc34)ccc21)O[C@@H]1CN2CCC1CC2 (stereo partly drawn) [Example 43, (S)-quinuclidin-3-yl (7-(benzofuran-3-yl)chroman-4-yl)carbamate] | 0.58 nM | 0.02 nM
30 | O=C(NC1CCOc2cc(-c3cnn(Cc4ccccc4)c3)ccc21)O[C@@H]1CN2CCC1CC2 (stereo partly drawn) [Example 72, (S)-quinuclidin-3-yl (7-(1-benzyl-1H-pyrazol-4-yl)chroman-4-yl)carbamate] | 0.92 nM | 12.8 nM
31 | COc1cc2c(cc1-c1ccc(F)cc1)OCC(C)(C)C2NC(=O)O[C@@H]1CN2CCC1CC2 (stereo partly drawn) [Example 350, (S)-quinuclidin-3-yl (7-(4-fluorophenyl)-6-methoxy-3,3-dimethylchroman-4-yl)carbamate] | 0.47 nM | 7.5 nM
